The subject of experiment [1] is Homo sapiens. Nature of the experiment: Improvement in disease symptoms in GERD patient assessed as improvement in global disease scores at 200 mg dosed daily co-treated 150 mg anti-H2 drug Ranitidine dosed daily. In kind it is functional, organism-based.
Experiment [2] deals with Homo sapiens. Nature of the experiment: Improvement in disease symptoms in GERD patient assessed as reduction in regurgitation at 200 mg dosed daily co-treated with 10 mg anti-H1 drug loratadine dosed daily and 150 mg anti-H2 drug Ranitidine dosed daily. Format: functional, organism-based.
In experiment [3] the test system is Homo sapiens. Nature of the experiment: Improvement in disease symptoms in GERD patient assessed as improvement in global disease scores at 200 mg dosed daily co-treated with 10 mg anti-H1 drug loratadine dosed daily and 150 mg anti-H2 drug Ranitidine dosed daily. Format: functional, organism-based.
For experiment [4], the system named is Homo sapiens. Nature of the experiment: Improvement in disease symptoms in GERD patient assessed as reduction in cough at 200 mg dosed daily co-treated with 10 mg anti-H1 drug loratadine dosed daily and 150 mg anti-H2 drug Ranitidine dosed daily. Format: functional, organism-based.
Experiment [5] relates to Homo sapiens. As to the kind of experiment: Improvement in disease symptoms in GERD patient assessed as reduction in heartburns at 200 mg dosed daily co-treated with 10 mg anti-H1 drug loratadine dosed daily and 150 mg anti-H2 drug Ranitidine dosed daily. In kind it is functional, organism-based.
The test system of experiment [6] is Homo sapiens. Nature of the experiment: Improvement in disease symptoms in GERD patient assessed as reduction in cough at 200 mg dosed daily co-treated with 150 mg anti-H2 drug Ranitidine dosed daily. Format: functional, organism-based.
Experiment [7] deals with Homo sapiens. As to the kind of experiment: Improvement in disease symptoms in GERD patient assessed as improvement in global disease scores at 200 mg dosed daily co-treated with 10 mg anti-H1 drug loratadine dosed daily. Format: functional, organism-based.
For experiment [8], the system named is Homo sapiens. Nature of the experiment: Improvement in disease symptoms in GERD patient assessed as reduction in cough at 200 mg dosed daily co-treated with 10 mg anti-H1 drug loratadine dosed daily. Format: functional, organism-based.
Experiment [9] concerns Homo sapiens. As to the kind of experiment: Improvement in disease symptoms in GERD patient assessed as reduction in cough at 200 mg dosed daily. Format: functional, organism-based.
Experiment [10] deals with Homo sapiens. As to the kind of experiment: Prevention of food allergy in pediatric patient with history of anaphylaxis due to nut allergy assessed as reduction in allergic symptoms at 200 mg dosed daily over 8 months co-administered with 10 mg Montelukast dosed daily. Format: functional, organism-based.
In experiment [11] the test system is Homo sapiens. As to the kind of experiment: Improvement in disease symptoms in GERD patient assessed as reduction in regurgitation at 200 mg dosed daily co-treated with 150 mg anti-H2 drug Ranitidine dosed daily. Format: functional, organism-based.
The target of experiment [12] is T1, Histidine decarboxylase (Homo sapiens) (UniProt P19113).
T1 sequence (whole entry): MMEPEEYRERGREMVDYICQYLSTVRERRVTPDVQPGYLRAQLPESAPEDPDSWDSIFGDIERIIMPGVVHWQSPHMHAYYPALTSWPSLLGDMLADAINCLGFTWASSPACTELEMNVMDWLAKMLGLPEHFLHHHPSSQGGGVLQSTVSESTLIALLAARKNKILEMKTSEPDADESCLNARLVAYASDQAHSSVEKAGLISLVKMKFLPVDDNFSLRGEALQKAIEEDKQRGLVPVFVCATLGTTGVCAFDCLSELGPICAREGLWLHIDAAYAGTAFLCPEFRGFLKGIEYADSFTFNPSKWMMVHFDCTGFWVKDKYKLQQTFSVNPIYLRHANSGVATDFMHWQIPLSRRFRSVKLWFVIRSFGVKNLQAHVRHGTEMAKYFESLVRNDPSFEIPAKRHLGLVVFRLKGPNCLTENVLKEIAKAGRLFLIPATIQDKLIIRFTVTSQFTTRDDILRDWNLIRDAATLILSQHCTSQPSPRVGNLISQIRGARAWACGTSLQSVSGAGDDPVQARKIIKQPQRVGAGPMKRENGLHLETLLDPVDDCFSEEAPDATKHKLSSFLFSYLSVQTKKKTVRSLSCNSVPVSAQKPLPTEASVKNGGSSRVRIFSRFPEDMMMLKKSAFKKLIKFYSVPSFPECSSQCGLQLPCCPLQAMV
As to the kind of experiment: Inhibition of recombinant human HDC (1 to 512 residues) expressed in Escherichia coli BL21 (DE3) pLysS assessed as reduction in [14C]CO2 production from L-[U-14C]histidine at 10 uM relative to untreated control.

Experiment [13] relates to Homo sapiens. As to the kind of experiment: Prevention of food allergy in pediatric patient with history of anaphylaxis due to nut allergy assessed as reduction in diarrhea at 200 mg dosed daily for 6 months co-administered with 10 mg Montelukast dosed daily. Format: functional, organism-based.
The subject of experiment [14] is Homo sapiens. As to the kind of experiment: Prevention of food allergy in patient with history of anaphylaxis due to allergens assessed as reduction in allergy symptoms to pea nut ingestion at 200 mg dosed daily for 8 months co-administered with 10 mg Montelukast dosed daily. Format: functional, organism-based.
Experiment [15] relates to Homo sapiens. Nature of the experiment: Prevention of food allergy in pediatric patient with history of anaphylaxis due to nut allergy assessed as reduction in constipation at 200 mg dosed daily for 6 months co-administered with 10 mg Montelukast dosed daily. Format: functional, organism-based.
Experiment [16] relates to Homo sapiens. Nature of the experiment: Prevention of food allergy in pediatric patient with history of anaphylaxis due to nut allergy assessed as reduction in stomach pain at 200 mg dosed daily for 6 months co-administered with 10 mg Montelukast dosed daily. In kind it is functional, organism-based.
The subject of experiment [17] is Homo sapiens. Nature of the experiment: Improvement in disease symptoms in GERD patient assessed as reduction in heartburns at 200 mg dosed daily co-treated with 10 mg anti-H1 drug loratadine dosed daily. Format: functional, organism-based.
Experiment [18] has as its system Homo sapiens. As to the kind of experiment: Improvement in disease symptoms in GERD patient assessed as improvement in global disease scores at 200 mg dosed daily. Format: functional, organism-based.
Experiment [19] has as its system Homo sapiens. As to the kind of experiment: Improvement in disease symptoms in GERD patient assessed as reduction in heartburns at 200 mg dosed daily. Format: functional, organism-based.
The test system of experiment [20] is Homo sapiens. Nature of the experiment: Prevention of food allergy in patient with history of anaphylaxis due to ingestion of shrimps assessed as reduction in allergy symptoms at 200 mg dosed daily for 6 weeks co-administered with 10 mg Montelukast dosed daily. In kind it is functional, organism-based.
The test system of experiment [21] is Homo sapiens. As to the kind of experiment: Prevention of food allergy in pediatric patient with history of anaphylaxis due to nut allergy assessed as reduction in digestive symptoms at 200 mg dosed daily over 8 months co-administered with 10 mg Montelukast dosed daily. In kind it is functional, organism-based.
Experiment [22] deals with Homo sapiens. Nature of the experiment: Prevention of food allergy in patient with history of anaphylaxis due to allergens assessed as reduction in allergy symptoms at 200 mg dosed daily for 6 to 8 weeks co-administered with 10 mg Montelukast dosed daily. Format: functional, organism-based.
The subject of experiment [23] is Homo sapiens. As to the kind of experiment: Prevention of food allergy in pediatric patient with history of anaphylaxis due to nut allergy assessed as reduction in allergic reactions at 200 mg dosed daily for 6 months co-administered with 10 mg Montelukast dosed daily. Format: functional, organism-based.
For experiment [24], the system named is Homo sapiens. As to the kind of experiment: Improvement in disease symptoms in GERD patient assessed as reduction in regurgitation at 200 mg dosed daily co-treated with 10 mg anti-H1 drug loratadine dosed daily. In kind it is functional, organism-based.
Experiment [25] concerns Homo sapiens. As to the kind of experiment: Prevention of food allergy in pediatric patient with history of anaphylaxis due to nut allergy assessed as reduction in allergic reactions at 200 mg dosed daily for 6 weeks co-administered with 10 mg Montelukast dosed daily. Format: functional, organism-based.
Experiment [26] deals with Homo sapiens. Nature of the experiment: Improvement in disease symptoms in GERD patient assessed as reduction in regurgitation at 200 mg dosed daily. Format: functional, organism-based.
The test system of experiment [27] is Homo sapiens. As to the kind of experiment: Improvement in disease symptoms in GERD patient assessed as reduction in heartburns at 200 mg dosed daily co-treated with 150 mg anti-H2 drug Ranitidine dosed daily. In kind it is functional, organism-based.
Experiment [28] deals with Homo sapiens. As to the kind of experiment: Improvement in disease symptoms in GERD patient assessed as reduction in regurgitation at 10 mg dosed daily. In kind it is functional, organism-based.
Experiment [29] concerns Homo sapiens. As to the kind of experiment: Improvement in disease symptoms in GERD patient assessed as reduction in heartburns at 10 mg dosed daily. In kind it is functional, organism-based.
Experiment [30] concerns Homo sapiens. As to the kind of experiment: Improvement in disease symptoms in GERD patient assessed as improvement in global disease scores at 10 mg dosed daily. In kind it is functional, organism-based.
For experiment [31], the system named is Homo sapiens. Nature of the experiment: Improvement in disease symptoms in GERD patient assessed as reduction in cough at 10 mg dosed daily. Format: functional, organism-based.
Experiment [32] concerns Homo sapiens. As to the kind of experiment: Improvement in disease symptoms in GERD patient assessed as reduction in regurgitation at 150 mg dosed daily. In kind it is functional, organism-based.
Experiment [33] relates to Homo sapiens. Nature of the experiment: Improvement in disease symptoms in GERD patient assessed as improvement in global disease scores at 150 mg dosed daily. Format: functional, organism-based.
Experiment [34] deals with Homo sapiens. Nature of the experiment: Improvement in disease symptoms in GERD patient assessed as reduction in cough at 150 mg dosed daily. Format: functional, organism-based.
Experiment [35] relates to Homo sapiens. Nature of the experiment: Improvement in disease symptoms in GERD patient assessed as reduction in heartburns at 150 mg dosed daily. Format: functional, organism-based.

Several values for one entry are separate records, joined by “and”; a condition that tells them apart may be missing. Identical values can stand only once. Activity calls are given as the source filed them. The calls are words filed in the database; no cut-off is given here.

What is called inhibition is the change of the read-out against control, counted positive when it falls. As to `CCOc1c(N)c2c(c(OCC)c1OCC)C(C1c3c(cc4c(c3OC)OCO4)CCN1C)OC2=O` (stereo not given), the outcome with Homo sapiens [1], with Homo sapiens [2], in the experiment on Homo sapiens [3], with Homo sapiens [4], with Homo sapiens [5] and in the experiment with Homo sapiens [6] was Active. Besides, the outcome in the experiment with Homo sapiens [7], in the experiment on Homo sapiens [8], with Homo sapiens [10], in the experiment with Homo sapiens [11], in the experiment with Homo sapiens [13] and in the experiment on Homo sapiens [14] was Active. The outcome in the experiment on Homo sapiens [15], with Homo sapiens [16], in the experiment with Homo sapiens [17], with Homo sapiens [20], with Homo sapiens [21] and with Homo sapiens [22] was Active. The result in the experiment with Homo sapiens [23], with Homo sapiens [24], in the experiment with Homo sapiens [25] and in the experiment with Homo sapiens [27] was Active. For the same compound, the result with Homo sapiens [9], with Homo sapiens [18], with Homo sapiens [19] and in the experiment on Homo sapiens [26] was inactive. Besides, the inhibition in [12] is 36.5% and 27.9%.

Consider `CCOC(=O)N1CCC(=C2c3ccc(Cl)cc3CCc3cccnc32)CC1`, for which the outcome in the experiment with Homo sapiens [28], with Homo sapiens [29], in the experiment with Homo sapiens [30] and with Homo sapiens [31] was inactive.

On to `CNC(=C[N+](=O)[O-])NCCSCc1ccc(CN(C)C)o1`, for which the outcome in the experiment with Homo sapiens [32], in the experiment with Homo sapiens [33], in the experiment on Homo sapiens [34] and with Homo sapiens [35] was inactive.
